Laboratory results reported in ChEMBL document CHEMBL3091380, “Dibenzoyl and isoflavonoid glycosides from Sophora flavescens: inhibition of the cytotoxic effect of D-galactosamine on human hepatocyte HL-7702” (2013).

Legend:
[1] = Hepatoprotective activity in human HL-7702 cells assessed as inhibition of D-galactosamine-induced toxicity at 1x10'-5 M by MTT assay relative to control; assay type: functional; details: L02
[2] = tested on: L02; assay: Hepatoprotective activity against D-galactosamine-induced toxicity in human HL-7702 cells assessed as survival rate at 1x10'-5 M by MTT assay relative to normal cell; assay type: functional; details: read-out: Survival

`COc1ccc(C(=O)C(=O)c2ccc(O[C@@H]3O[C@H](CO[C@@H]4OC[C@@H](O)[C@H](O)[C@H]4O)[C@@H](O)[C@H](O)[C@H]3O)cc2O)cc1O` gave an inhibition at 10 µM [1] of 27.1% and a viability at 10 µM [2] of 61.3%.
`COc1ccc(C(=O)C(=O)c2ccc(O[C@@H]3O[C@H](CO[C@@H]4OC[C@](O)(CO)[C@H]4O)[C@@H](O)[C@H](O)[C@H]3O)cc2O)cc1O` showed an inhibition at 10 µM [1] of 52.4% and a viability at 10 µM [2] of 74.7%.
Work on `COc1ccc(-c2coc3cc(O[C@@H]4O[C@H](CO[C@@H]5OC[C@](O)(CO)[C@H]5O)[C@@H](O)[C@H](O)[C@H]4O)ccc3c2=O)cc1O` yielded an inhibition at 10 µM [1] of 36.6% and a viability at 10 µM [2] of 66.3%.
In the case of `COc1cc(-c2coc3cc(O[C@@H]4O[C@H](CO[C@@H]5OC[C@@H](O)[C@H](O)[C@H]5O)[C@@H](O)[C@H](O)[C@H]4O)ccc3c2=O)ccc1O`, the inhibition at 10 µM [1] is reported as 45.8% and the viability at 10 µM [2] is reported as 71.2%.
`COc1ccc(-c2coc3cc(O[C@@H]4O[C@H](CO[C@@H]5OC[C@@H](O)[C@H](O)[C@H]5O)[C@@H](O)[C@H](O)[C@H]4O)ccc3c2=O)cc1O` showed an inhibition at 10 µM [1] of 46.3% and a viability at 10 µM [2] of 71.5%.
`COC(=O)c1cc(OC)c2c(c1-c1c(CO)cc(OC)c3c1OCO3)OCO2` [BICYCLOL] showed an inhibition at 10 µM [1] of 29.4% and a viability at 10 µM [2] of 62.5%.
